Here are results for 21 compounds from paper PMC3662613 (Chemmedchem, 2013).

The target in one assay is p97 ATPase (Homo sapiens, UniProt P55072). In words: p97 ATPase assay. The class given is biochemical. As to conditions: triplicate, mean ±SD.
Assay [1] has as its system Ub^G76V–GFP (p97-dependent reporter). In words: Ub^G76V–GFP reporter degradation assay, dual reporter HeLa cell line. The class given is cell-based. The settings on record: read-out: IC50 Ub^G76V–GFP, triplicate, mean ±SD.
The subject of assay [2] is ODD-Luc (p97-independent proteasome substrate). As to the kind of experiment: ODD-Luc reporter degradation assay, dual reporter HeLa cell line. The format is cell-based. As to conditions: Homo sapiens, read-out: IC50 ODD-Luc.
A further assay concerns HCT15. In words: Cytotoxicity / antiproliferative activity. The format is cell-based. As to conditions: Homo sapiens.
Another assay relates to SW403. As to the kind of experiment: Cytotoxicity / antiproliferative activity. The class given is cell-based. The settings on record: Homo sapiens.
The mark [3] stands for this setting: HCT-15, 24 h, read-out: Cytotoxicity GI50 HCT15 24 h.
[4] abbreviates: HCT-15, 72 h, read-out: Cytotoxicity GI50 HCT15 72 h.
[5] abbreviates: SW-403, 24 h, read-out: Cytotoxicity GI50 SW403 24 h.
The mark [6] stands for this setting: SW-403, 72 h, read-out: Cytotoxicity GI50 SW403 72 h.

Read-outs that look alike come from different tables or passages of the source.

p97 ATPase, sequence (P55072 whole entry): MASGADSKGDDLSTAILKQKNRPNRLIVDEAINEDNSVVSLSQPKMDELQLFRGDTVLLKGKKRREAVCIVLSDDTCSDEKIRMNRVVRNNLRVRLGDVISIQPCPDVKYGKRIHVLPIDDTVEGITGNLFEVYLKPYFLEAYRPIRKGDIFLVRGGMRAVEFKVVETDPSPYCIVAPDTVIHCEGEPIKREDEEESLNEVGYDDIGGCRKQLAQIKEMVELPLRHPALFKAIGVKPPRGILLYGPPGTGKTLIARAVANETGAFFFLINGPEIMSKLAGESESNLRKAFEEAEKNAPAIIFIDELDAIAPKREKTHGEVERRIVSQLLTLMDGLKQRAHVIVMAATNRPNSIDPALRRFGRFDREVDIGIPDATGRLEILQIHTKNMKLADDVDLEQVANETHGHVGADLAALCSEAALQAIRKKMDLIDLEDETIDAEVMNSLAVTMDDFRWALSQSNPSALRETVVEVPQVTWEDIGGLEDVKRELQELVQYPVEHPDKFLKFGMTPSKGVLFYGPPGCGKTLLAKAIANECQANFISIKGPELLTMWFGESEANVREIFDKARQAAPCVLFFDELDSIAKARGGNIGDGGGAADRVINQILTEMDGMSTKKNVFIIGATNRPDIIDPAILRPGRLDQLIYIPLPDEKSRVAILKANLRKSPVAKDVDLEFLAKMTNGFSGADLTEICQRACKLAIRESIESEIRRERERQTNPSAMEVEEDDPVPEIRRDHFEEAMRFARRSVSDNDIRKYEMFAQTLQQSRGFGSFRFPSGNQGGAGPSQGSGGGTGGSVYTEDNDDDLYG

For “2-(2-Amino-5-bromo-1H-benzo[d]imidazol-1-yl)-N-benzyl-8-methoxyquinazolin-4-amine and 2-(2-Amino-6-bromo-1H-benzo[d]imidazol-1-yl)-N-benzyl-8-methoxyquinazolin-4-amine [compound 24]”, the IC50 – broadly, the concentration needed to halve the response being measured – at p97 ATPase (read-out: IC50 ATPase) was found to be 0.8 ± 0.3 µM; in assay [1], 30 ± 10 µM.
On to “2-(2-Amino-5-chloro-1H-benzo[d]imidazol-1-yl)-N-benzyl-8-methoxyquinazolin-4-amine and 2-(2-Amino-6-chloro-1H-benzo[d]imidazol-1-yl)-N-benzyl-8-methoxyquinazolin-4-amine [compound 23]”, for which the IC50 on p97 ATPase (read-out: IC50 ATPase) stood at 0.7 ± 0.3 µM; in assay [1] it was 31 ± 7 µM.
As to “2-(2-Amino-5-fluoro-1H-benzo[d]imidazol-1-yl)-N-benzyl-8-methoxyquinazolin-4-amine and 2-(2-Amino-6-fluoro-1H-benzo[d]imidazol-1-yl)-N-benzyl-8-methoxyquinazolin-4-amine [compound 30]”, the IC50 at p97 ATPase (read-out: IC50 ATPase) was found to be 0.08 ± 0.02 µM; in assay [1], 6.8 ± 1 µM.
On to “2-(2-Amino-5-methoxy-1H-benzo[d]imidazol-1-yl)-N-benzyl-8-methoxyquinazolin-4-amine and 2-(2-Amino-6-methoxy-1H-benzo[d]imidazol-1-yl)-N-benzyl-8-methoxyquinazolin-4-amine [compound 26]”, for which the half-inhibitory concentration (IC50) on p97 ATPase (read-out: IC50 ATPase) amounted to 0.48 ± 0.09 µM; in assay [1], 0.96 ± 0.2 µM.
On to “2-(2-Amino-5-methyl-1H-benzo[d]imidazol-1-yl)-N-benzyl-8-methoxyquinazolin-4-amine and 2-(2-Amino-6-methyl-1H-benzo[d]imidazol-1-yl)-N-benzyl-8-methoxyquinazolin-4-amine [compound 25]”, for which the IC50 was 0.24 ± 0.06 µM at p97 ATPase (read-out: IC50 ATPase) and 2.5 ± 0.5 µM in assay [1].
Regarding `c1ccc(Nc2nc(Nc3ccccc3)c3ccccc3n2)cc1` [compound 9, N^2,N^4-Diphenylquinazoline-2,4-diamine], at p97 ATPase (IC50 ATPase), half-maximal inhibition (IC50) was put at 2.6 ± 0.8 µM.
As for `COc1cccc2c(NCc3ccccc3)nc(NCc3ccccc3)nc12` [compound 14, N^2,N^4-Dibenzyl-8-methoxyquinazoline-2,4-diamine], in assay [2], the IC50 stood at 6.5 ± 1.1 µM. Besides, the GI50 (in general, the concentration at which growth is held to half of that of the control) with HCT15 (setting [3]) stood at 1.1 ± 0.3 µM; in the assay on HCT15 (setting [4]), 0.8 ± 0.3 µM; with SW403 (setting [5]), 0.8 ± 0.3 µM; in the assay on SW403 (setting [6]), 0.5 ± 0.2 µM.
For `c1ccc(CNc2nc(N3CCOc4ccccc43)nc3ccccc23)cc1` [compound 15, 2-(2H-Benzo[b][1,4]oxazin-4(3H)-yl)-N-benzylquinazolin-4-amine], the half-maximal inhibitory concentration (IC50) in assay [2] is over 20 µM. Also, the 50% growth inhibitory concentration (GI50) with HCT15 (setting [3]) was determined as 24 ± 3 µM; with HCT15 (setting [4]), 10 ± 3 µM; with SW403 (setting [5]), 21 ± 5 µM; in the assay on SW403 (setting [6]), 13 ± 4 µM.
For `c1ccc(CNc2nc(N3CCOc4ccccc43)nc3ccsc23)cc1` [compound 17, 2-(2H-Benzo[b][1,4]oxazin-4(3H)-yl)-N-benzylthieno[3,2-d]pyrimidin-4-amine], in assay [2], the IC50 is 17 ± 2 µM. The GI50 in the assay on HCT15 (setting [3]) came out at 37 ± 7 µM; in the assay on HCT15 (setting [4]), 16 ± 5 µM; in the assay with SW403 (setting [5]), 18 ± 10 µM; in the assay with SW403 (setting [6]), 9.7 ± 3.7 µM.
Taken in the same sequence, the figures for `COc1cccc2c(NCc3ccccc3)nc(Nc3nc4ccccc4n3C)nc12` [compound 19, N^4-Benzyl-8-methoxy-N^2-(1-methyl-1H-benzo[d]imidazol-2-yl)quinazoline-2,4-diamine] were 10 ± 2 µM, 1.7 ± 0.8 µM, 1.4 ± 0.5 µM, 1.7 ± 0.7 µM and 1.4 ± 0.5 µM.
The compound `COc1cccc2c(NCc3ccccc3)nc(-n3c(N)nc4cc(Cl)c(Cl)cc43)nc12` [compound 21, 2-(2-Amino-5,6-dichloro-1H-benzo[d]imidazol-1-yl)-N-benzyl-8-methoxyquinazolin-4-amine] returned an IC50 against p97 ATPase (IC50 ATPase) of 25 ± 8 µM.
In the case of `COc1cccc2c(NCc3ccccc3)nc(-n3c(N)nc4c(F)cccc43)nc12` [compound 27, 2-(2-Amino-4-fluoro-1H-benzo[d]imidazol-1-yl)-N-benzyl-8-methoxyquinazolin-4-amine], the half-maximal inhibitory concentration (IC50) against p97 ATPase (IC50 ATPase) stood at 0.043 ± 0.01 µM.
Take `COc1cccc2c(NCc3ccccc3)nc(-n3c(N)nc4cccc(F)c43)nc12` [compound 28, 2-(2-Amino-7-fluoro-1H-benzo[d]imidazol-1-yl)-N-benzyl-8-methoxyquinazolin-4-amine]: on p97 ATPase (IC50 ATPase), the IC50 amounted to 0.5 ± 0.1 µM.
The compound `COc1cccc2c(NCc3ccccc3)nc(-n3c(N)nc4c(C)cccc43)nc12` [compound 29, 2-(2-Amino-4-methyl-1H-benzo[d]imidazol-1-yl)-N-benzyl-8-methoxyquinazolin-4-amine] gave an IC50 at p97 ATPase (IC50 ATPase) of 0.045 ± 0.006 µM.
Take `OCCOc1cccc2c(NCc3ccccc3)nc(N3CCOc4ccccc43)nc12` [compound 33, 2-((2-(2H-Benzo[b][1,4]oxazin-4(3H)-yl)-4-(benzylamino)quinazolin-8-yl)oxy)ethanol]: the IC50 in assay [2] is over 20 µM. In addition, the GI50 with HCT15 (setting [3]) came to 28 ± 3 µM; in the assay with HCT15 (setting [4]), 17 ± 5 µM; with SW403 (setting [5]) it was 42 ± 9 µM; in the assay on SW403 (setting [6]), 9.4 ± 2.9 µM.
Turning to `COCCOc1cccc2c(NCc3ccccc3)nc(N3CCOc4ccccc43)nc12` [compound 34, 2-(2H-Benzo[b][1,4]oxazin-4(3H)-yl)-N-benzyl-8-(2-methoxyethoxy)quinazolin-4-amine], the IC50 in assay [2] was found to be 27 ± 5 µM. Besides, the GI50 in the assay on HCT15 (setting [3]) was 12 ± 4 µM; with HCT15 (setting [4]), 9 ± 3 µM; in the assay on SW403 (setting [5]), 15 ± 7 µM; in the assay on SW403 (setting [6]), 7.9 ± 2.7 µM.
Take `CCN(CC)CCOc1cccc2c(NCc3ccccc3)nc(N3CCOc4ccccc43)nc12` [compound 35, 2-(2H-Benzo[b][1,4]oxazin-4(3H)-yl)-N-benzyl-8-(2-(diethylamino)ethoxy)quinazolin-4-amine]: the IC50 in assay [2] was 61 ± 6 µM. Also, the GI50 with HCT15 (setting [3]) is 13 ± 5 µM; in the assay with HCT15 (setting [4]), 7.1 ± 2.5 µM; with SW403 (setting [5]), 11 ± 5 µM; in the assay on SW403 (setting [6]) it was 3.9 ± 1 µM.
Take `CCCCOc1cccc2c(NCc3ccccc3)nc(N3CCOc4ccccc43)nc12` [compound 37, 2-(2H-Benzo[b][1,4]oxazin-4(3H)-yl)-N-benzyl-8-butoxyquinazolin-4-amine]: the IC50 against p97 ATPase (IC50 ATPase) turned out to be 2.63 ± 0.7 µM.
Take `COc1cccc2c(NCc3ccccc3)nc(N3CCOc4ccccc43)nc12` [compound 38, 2-(2H-Benzo[b][1,4]oxazin-4(3H)-yl)-N-benzyl-8-methoxyquinazolin-4-amine]: the concentration for half-maximal inhibition (IC50) in assay [2] is over 20 µM. Also, the concentration for 50% growth inhibition (GI50) was determined as 25 ± 5 µM in the assay with HCT15 (setting [3]), 12 ± 3 µM with HCT15 (setting [4]), 43 ± 11 µM in the assay with SW403 (setting [5]) and 13 ± 4 µM with SW403 (setting [6]).
`N#CCOc1cccc2c(NCc3ccccc3)nc(N3CCOc4ccccc43)nc12` [compound 39, 2-((2-(2H-Benzo[b][1,4]oxazin-4(3H)-yl)-4-(benzylamino)quinazolin-8-yl)oxy)acetonitrile]: the IC50 against p97 ATPase (IC50 ATPase) came out at 0.4 ± 0.08 µM.
As to `COc1cccc2c(NCc3ccc(F)cc3)nc(N3CCOc4ccccc43)nc12` [compound 40, 2-(2H-Benzo[b][1,4]oxazin-4(3H)-yl)-N-(4-fluorobenzyl)-8-methoxyquinazolin-4-amine], the IC50 in assay [2] was over 20 µM. Also, the GI50 with HCT15 (setting [3]) was found to be 27 ± 4 µM; in the assay on HCT15 (setting [4]), 8.9 ± 2.3 µM; in the assay with SW403 (setting [5]), 21 ± 6 µM; in the assay with SW403 (setting [6]) it was 9.4 ± 2.6 µM.
